Test results published in patent US4367237A, “Prostacyclin analogues” (priority 1978, dated 1983).
Where a name gives a salt, the structure may show the parent alone.

Experiments:
uterine contraction = assay: UCA (Uterine contraction activity); assay type: in vivo, pregnant female rat; settings: for UCA (Uterine contraction activity), relative to PGE1: pregnant female rat, intravenous, 20th day of gestation
Description: (§1) The results of standard laboratory tests are shown below in Table 1, wherein the various activities are shown relative to PGE1.
The compounds stimulate uterine contraction in the pregnant female rat when administered intravenously on the 20th day of gestation.
Moreover, other compounds of the present invention [prepared as hereafter described in the Examples] other than the above compounds for which results are given in Table 1 stimulate uterine contraction when administered intravenously to the pregnant female rat on the 20th day of gestation at doses of 0.2-100 μg/kg animal body weight.

blood pressure = assay: BP (Hypotensive activity); assay type: in vivo; settings: intravenous, allobarbital-anaesthetised dog
Description: as §1
The compounds produce falls in blood pressure when administered intravenously to the allobarbital-anaesthetised dog.

[1] = test system: platelet-rich plasma of rats; assay: PAI (Inhibitory activity on blood platelet aggregation), adenosine diphosphate-induced; assay type: cell-based, rat; settings: 50% inhibition of ADP-induced aggregation
gastric acid secretion = assay: GSI (Inhibitory activity on gastric acid secretion); assay type: in vivo; settings: increase in gastric acid pH from 2.0-2.5 to at least 4.0 in 50% of pentagastrin-treated rats, perfused intravenously
Description: as §1
The compounds produce an increase in gastric acid pH from 2.0-2.5 to at least 4.0 in 50% of pentagastrin-treated rats when perfused intravenously.

stress ulceration = assay: GUI (Inhibitory activity on gastric ulceration), stress ulceration; assay type: in vivo, rat; settings: stress ulceration of rats, oral, water bath 19° C. for 6 hours
Description: as §1
The compounds produce an inhibition of stress ulceration by oral administration in the stress ulceration of rats produced according to the method of Takagi and Okabe [Jap. J. Pharmc., 18, 9-18 (1968)], i.e. by soaking rats in a water bath at 19° C. for 6 hours.

diarrhoea = assay: Diarrhoea (Diarrhoea-producing activity); assay type: in vivo; settings: diarrhoea in 50% of mice, oral
Description: as §1
The compounds produce diarrhoea in 50% of mice by oral administration.

[2] = LD50 (Acute toxicity tests); settings: mouse, in vivo, iv; injected intravenously into mice
Description: The compounds are injected intravenously into mice.

[3] = test system: women in the expired stage of pregnancy; assay: Clinical: induction of labour; assay type: in vivo, human; settings: pessary 0.2 mg, vaginal, one to three times at one- to three-hour intervals; five women
Description: One pessary containing 0.2 mg of (13E)-(6RS,9α,11α,15S)-6,9-epithio-11,15-dihydroxyprost-13-enoic acid methyl ester (prepared as described in Example 21) was administered vaginally one to three times at one- to three-hour intervals to five women aged from twenty to forty years in the expired stage of pregnancy.

[4] = test system: women two or three days before the expected date of menstruation; assay: Clinical: beginning of menstruation; assay type: in vivo, human
Description: One pessary containing 1 mg of (13E)-(6RS,9α,11α,15S)-6,9-epithio-11,15-dihydroxyprost-13-enoic acid methyl ester (prepared as described in Example 21) was administered vaginally one to five times at one- to three-hour intervals to fifteen women aged from twenty to forty years two or three days before the expected date of menstruation.
One pessary containing 0.5 mg of (13E)-(6RS,9α,11α,15R)-6,9-epithio-11,15-dihydroxy-16,16-dimethylprost-13-enoic acid methyl ester (prepared as described in Example 21) was administered vaginally one to three times at one- to three-hour intervals to three women aged twenty or twenty-one years two or three days before the expected date of menstruation.
One to three tablets containing 0.5 mg of (13E)-(6RS,9α,11α,15S)-6,9-epithio-11,15-dihydroxyprost-13-enoic acid methyl ester (prepared as described in Example 17) were administered orally to five women aged from twenty to twenty-two years two or three days before the expected date of menstruation.

[5] = test system: women in the early stages of pregnancy; assay: Clinical: termination of pregnancy; assay type: in vivo, human
Description: One pessary containing 1 mg of (13E)-(6RS,9α,11α,15S)-6,9-epithio-11,15-dihydroxyprost-13-enoic acid methyl ester (prepared as described in Example 21) was administered vaginally two to five times at one- to three-hour intervals to fifteen women aged from twenty to forty years in the early stages of pregnancy.
One to three tablets containing 0.25 mg of (13E)-(6RS,9α,11α,15R)-6,9-epithio-11,15-dihydroxy-16,16-dimethylprost-13-enoic acid methyl ester (prepared as described in Example 17) were administered orally one to five times to seven women aged from twenty-five to thirty years in the early stages of pregnancy.

[6] = test system: human blood platelet aggregation; settings: J.C.S. Chem. Comm., 375 (1978); cited from earlier work
[7] = test system: isolated cat coronary artery; settings: J.C.S. Chem. Comm., 375 (1978); cited from earlier work
artery = settings: cited from earlier work
[8] = test system: blood platelet aggregation of the human; settings: cited from earlier work
blood platelets = settings: cited from earlier work

SMILES | UCA (Uterine contraction activity), relative to PGE1 (uterine contraction) | BP (Hypotensive activity), relative to PGE1 (blood pressure) | PAI (Inhibitory activity on blood platelet aggregation), relative to PGE1 [1] | GSI (Inhibitory activity on gastric acid secretion), relative to PGE1 (gastric acid secretion) | GUI (Inhibitory activity on gastric ulceration), relative to PGE1 (stress ulceration) | Diarrhoea (Diarrhoea-producing activity), relative to PGE1 (diarrhoea) | LD50 [2] [mg/kg] | activity on human blood platelet aggregation [6] | activity on isolated cat coronary artery [7] | other results
CCCCC[C@H](O)/C=C/[C@@H]1[C@H]2CC(CCCCC(=O)OC)S[C@H]2C[C@H]1O (mixture of isomers) [A, (13E)-(6RS,9α,11α,15S)-6,9-epithio-11,15-dihydroxyprost-13-enoic acid methyl ester] | 11.5 | 0.2 | 0.03 | < 0.1 | < 0.5 | 0.072 | 100 | inhibitory activity on human blood platelet aggregation | vasoconstricting activity on isolated cat coronary artery | induction of labour [3]: confirmed in all the cases; beginning of menstruation ([4]; one to three tablets 0.5 mg, oral, five women): confirmed in all the cases; beginning of menstruation ([4]; pessary 1 mg, vaginal, one to five times, fifteen women): confirmed in all the cases; termination of pregnancy ([5]; pessary 1 mg, vaginal, two to five times, fifteen women): confirmed in all the cases
CCCCC[C@H](O)/C=C/[C@@H]1[C@H]2CC(CCCCC(=O)O)S[C@H]2C[C@H]1O (mixture of isomers) [B, (13E)-(6RS,9α,11α,15S)-6,9-epithio-11,15-dihydroxyprost-13-enoic acid] | 10 | 0.2 | 0.038 | < 0.1 | < 0.5 | < 0.1 | – | inhibitory activity on human blood platelet aggregation | vasoconstricting activity on isolated cat coronary artery | stimulatory activity on uterine contraction (in words) (uterine contraction; rat, in vivo): selective strong stimulatory activity on uterine contraction
CCCCC(C)(C)[C@H](O)/C=C/[C@@H]1[C@H]2CC(CCCCC(=O)OC)S[C@H]2C[C@H]1O (mixture of isomers) [D, (13E)-(6RS,9α,11α,15R)-6,9-epithio-11,15-dihydroxy-16,16-dimethylprost-13-enoic acid methyl ester] | 23.1 | < 0.1 | 0.006 | < 0.3 | < 0.5 | 0.095 | 25 | – | – | beginning of menstruation ([4]; pessary 0.5 mg, vaginal, one to three times, three women): confirmed in all the cases; termination of pregnancy ([5]; one to three tablets 0.25 mg, oral, one to five times, seven women): confirmed in all the cases
CCCC[C@H](C)[C@H](O)/C=C/[C@@H]1[C@H]2CC(CCCCC(=O)OC)S[C@H]2C[C@H]1O (mixture of isomers) [E, (13E)-(6RS,9α,11α,15S,16S)-6,9-epithio-11,15-dihydroxy-16-methylprost-13-enoic acid methyl ester] | 27.3 | 0.55 | 0.21 | < 0.3 | < 0.5 | 0.514 | – | – | – | –
CCCCC1([C@H](O)/C=C/[C@@H]2[C@H]3CC(CCCCC(=O)OC)S[C@H]3C[C@H]2O)CCC1 (stereo partly drawn) [C, (13E)-(6RS,9α,11α,15R)-6,9-epithio-11,15-dihydroxy-15-(1-butylcyclobutyl)-16,17,18,19,20-pentanorprost-13-enoic acid methyl ester] | 15.8 | < 0.1 | 0.011 | 0.3 | < 0.5 | < 0.02 | 100 | – | – | –
CCCCC[C@H](O)/C=C/[C@H]1[C@H](O)CC(=O)[C@@H]1CCCCCCC(=O)O [PGE1, reference compound] | 1 | 1 | – | 1 | – | 1 | – | – | – | –
CCCCC[C@H](O)/C=C/[C@@H]1[C@H]2C/C(=C/CCCC(=O)OC)O[C@H]2C[C@H]1O [PGI2 methyl ester, reference compound] | 0.5 | 20 | 85 | – | – | < 0.1 | – | – | – | –
CCCCC[C@H](O)/C=C/[C@@H]1[C@H]2C/C(=C/CCCC(=O)O)O[C@H]2C[C@H]1O [PGI2, (5Z,13E)-(9α,11α,15S)-6,9-epoxy-11,15-dihydroxyprosta-5,13-dienoic acid] | – | – | – | – | – | – | – | – | – | activity on the artery (artery): relaxing activity on the artery; inhibition of arachidonic acid-induced blood platelet aggregation [8]: strongly inhibits
CCCCC[C@H](O)/C=C/[C@@H]1[C@H]2CC(CCCCC(=O)O)S[C@H]2C[C@H]1O (stereo partly shown) [sodium salt] | – | – | – | – | – | – | – | inhibitory activity on human blood platelet aggregation | vasoconstricting activity on isolated cat coronary artery | –
CCCCC[C@H](O)/C=C/[C@H]1O[C@H]2C[C@H](O2)[C@@H]1C/C=C\CCCC(=O)O [thromboxane A2] | – | – | – | – | – | – | – | – | – | activity on the artery (artery): contracting activity on the artery; activity on blood platelets (blood platelets): aggregating activity on blood platelets
